Experimental data published in PMC5189922 (Journal of medicinal chemistry, 2016).
Entries after “also recorded” stand apart in the source; their conditions may differ.

Key:
Hot water = format: in vivo, mice; conditions: for antinociceptive effect in tail-flick assay: male B6-SJL mice, 10 s cutoff
human κ-opioid receptor = human κ-opioid receptor (Homo sapiens, UniProt P41145); format: cell-based
[1] = tested on: human µ-opioid receptor β-arrestin-2; experiment: MOR-mediated β-arrestin-2 recruitment; format: cell-based
[2] = Accelerating rotarod performance assay
[3] = Conditioned place preference; conditions: male Sprague Dawley rats, vs vehicle
human µ-opioid receptor = human µ-opioid receptor (Homo sapiens, UniProt P35372); format: cell-based
Chain of human µ-opioid receptor (P35372 whole entry): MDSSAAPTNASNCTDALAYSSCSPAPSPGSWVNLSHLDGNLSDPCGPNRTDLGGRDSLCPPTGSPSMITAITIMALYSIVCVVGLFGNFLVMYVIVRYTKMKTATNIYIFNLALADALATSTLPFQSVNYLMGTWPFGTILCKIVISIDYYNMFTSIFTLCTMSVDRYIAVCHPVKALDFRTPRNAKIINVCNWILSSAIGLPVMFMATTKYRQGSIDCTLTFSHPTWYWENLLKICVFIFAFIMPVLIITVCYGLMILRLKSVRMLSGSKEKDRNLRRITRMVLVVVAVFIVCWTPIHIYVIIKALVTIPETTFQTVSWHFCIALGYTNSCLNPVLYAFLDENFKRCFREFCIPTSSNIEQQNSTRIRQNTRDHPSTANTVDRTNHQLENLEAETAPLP

[4] = Cumulative dose-response tail-flick assay and tolerance evaluation; format: in vivo, mice; conditions: cumulative dosing, day 9 after daily 10 mg/kg s.c. on days 2–8 (tolerance)

Chain of human κ-opioid receptor (P41145 whole entry): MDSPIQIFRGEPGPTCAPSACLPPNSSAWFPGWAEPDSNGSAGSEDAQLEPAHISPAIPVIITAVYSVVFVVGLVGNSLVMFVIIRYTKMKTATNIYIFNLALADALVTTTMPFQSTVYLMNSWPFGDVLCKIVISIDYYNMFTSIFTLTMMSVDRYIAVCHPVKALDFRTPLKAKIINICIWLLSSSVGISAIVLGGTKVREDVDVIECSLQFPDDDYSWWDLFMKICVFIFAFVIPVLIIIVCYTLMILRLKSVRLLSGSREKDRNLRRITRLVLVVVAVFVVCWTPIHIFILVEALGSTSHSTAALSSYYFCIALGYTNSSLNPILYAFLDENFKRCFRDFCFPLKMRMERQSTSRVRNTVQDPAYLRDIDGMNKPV

COC(=O)[C@@H]1C[C@H](OC(=O)c2ccccc2)C(=O)[C@H]2[C@@]1(C)CC[C@H]1C(=O)O[C@H](c3ccoc3)C[C@]21C [Compound 2, herkinorin, reference compound]
antinociceptive effect in tail-flick assay (Hot water; 1, 5, and 10 mg/kg i.p.): no significant antinociceptive effects
activity at KORs (in words) (human κ-opioid receptor): partial agonist
EC50 ([1]; read-out: β-arrestin-2 recruitment EC50): > 3000 nM
motor coordination on rotarod ([2]; dose not given, data not shown): no observable effect on motor co-ordination
conditioned place preference (CPP score) ([3]; 5 mg/kg): Neither 5 (5 and 10 mg/kg) nor 2 (5 mg/kg) were significantly different to vehicle

CC(=O)O[C@@H]1C[C@H](NC(=O)c2ccccc2)C(=O)[C@H]2[C@@]1(C)CC[C@H]1C(=O)O[C@H](c3ccoc3)C[C@]21C [Compound 3, herkamide, reference compound]
Selectivity κ/µ (human µ-opioid receptor): >3 000

COC(=O)[C@@H]1C[C@@H](OC(=O)c2ccccc2)C(=O)[C@H]2[C@@]1(C)CC[C@H]1C(=O)O[C@H](c3ccoc3)C[C@]21C [Compound 4]
activity at MORs (in words) (human µ-opioid receptor): complete loss of activity
activity at KORs (in words) (human κ-opioid receptor): complete loss of activity

COC(=O)[C@@H]1C=C(OC(=O)c2ccccc2)C(=O)[C@H]2[C@@]1(C)CC[C@H]1C(=O)O[C@H](c3ccoc3)C[C@]21C [Compound 5, (2S,4aR, 6aR,7R,10aR,10bR)-Methyl 9-((benzoyl)oxy)-2-(furan-3-yl)-6a,10b-dimethyl-4,10-dioxo-2,4,4a,5,6,6a,7,10,10a,10b-decahydro-1H-benzo[f]isochromene-7-carboxylate]
time of maximal antinociceptive effects (Hot water; 10 mg/kg i.p.): 30 min
antinociceptive effect in tail-flick assay (Hot water; 5 and 10 mg/kg i.p., vs vehicle): significant antinociceptive effects
antinociceptive effect after naloxone pre-treatment (Hot water; naloxone 10 mg/kg s.c. 45 min pre-treatment): blocked
EC50 antinociception day 9 [4]: 7.9 mg/kg
activity at KORs (in words) (human κ-opioid receptor): no activity
Emax ([1]; read-out: % Efficacy ± SEM): 96 ± 3%
motor coordination / sedation on rotarod ([2]; 10 mg/kg i.p., 4 to 40 rpm over 300 s): slight sedation only at the 15 min time point
conditioned place preference (CPP score) ([3]; 5 mg/kg and 10 mg/kg i.p.): CPP score similar to the vehicle control; also recorded: Neither 5 (5 and 10 mg/kg) nor 2 (5 mg/kg) were significantly different to vehicle

COC(=O)[C@@H]1C=C(O)C(=O)[C@H]2[C@@]1(C)CC[C@H]1C(=O)O[C@H](c3ccoc3)C[C@]21C [Compound 7a, Methyl-(2S,4aR,6aR/S,7R,10aR,10bR)-2-(furan-3-yl)-9-hydroxy-6a,10b-dimethyl-4,10-dioxo-2,4,4a,5,6,6a,7,10,10a,10b-decahydro-1H-;benzo[f]isochromene-7-carboxylate]
activity at KORs (in words) (human κ-opioid receptor): active

COC(=O)[C@@H]1CC(=O)C(O)=C2[C@@]1(C)CC[C@H]1C(=O)O[C@H](c3ccoc3)C[C@]21C [Compound 7b, Methyl-(2S,4aR,6aS,7R,10bS)-2-(furan-3-yl)-10-hydroxy-6a,10b-dimethyl-4,9-dioxo-1,4,4a,5,6,6a,7,8,9,10b-decahydro-2H-benzo[f]isochromene-7-carboxylate]
activity at KORs (in words) (human κ-opioid receptor): completely inactive

CC(=O)O[C@@H]1C=C(OC(=O)c2cccc(F)c2)C(=O)[C@H]2[C@@]1(C)CC[C@H]1C(=O)O[C@H](c3ccoc3)C[C@]21C [Compound 9b]
Selectivity κ/µ (human µ-opioid receptor): >2 000
